Experimental findings from patent US11292791B2 (priority 2017, dated 2022) are described below.

This assay has as its target BRD4 (Homo sapiens (Human), UniProt O60885). The settings on record: read-out: BRD4 IC50 (μM gmean).

What is called IC50 is the point on the concentration scale where inhibition reaches its midpoint. In the case of `COC(=O)N1c2ccc3c(nc(C[C@@H](C)c4ccccc4)n3C)c2CC[C@@H]1C` [Example 1, methyl (S)-3,7-dimethyl-2-((R)-2-phenylpropyl)-3,7,8,9-tetrahydro-6H-imidazo[4,5-f]quinoline-6-carboxylate], the IC50 fell in the range of 1 to 1000 µM.
Regarding `COC(=O)N1c2ccc3c(nc(C[C@H](C)c4ccccc4)n3C)c2CC[C@@H]1C` [Example 2, methyl (S)-3,7-dimethyl-2-((S)-2-phenylpropyl)-3,7,8,9-tetrahydro-6H-imidazo[4,5-f]quinoline-6-carboxylate], the IC50 lay in the range of 1 to 1000 µM.
The figure for `COC(=O)N1c2ccc3[nH]c(CCc4ccccc4)nc3c2CC[C@@H]1C` [Example 7, methyl (S)-7-methyl-2-phenethyl-3,7,8,9-tetrahydro-6H-imidazo[4,5-f]quinoline-6-carboxylate] is 1 to 1000 µM; for `COC(=O)N1c2ccc3[nH]c(Cc4ccccc4)nc3c2CC[C@@H]1C` [Example 9] it is 1 to 1000 µM.
The figure for `COC(=O)N1c2ccc3c(nc(CCc4ccccc4)n3C)c2CC[C@@H]1C` [Example 10] is 1 to 1000 µM; for `COC(=O)N1c2ccc3c(nc(CCn4cccn4)n3C)c2CC[C@@H]1C` [Example 11] it is 1 to 1000 µM; for `COC(=O)N1c2ccc3[nH]c(CCc4ccccn4)nc3c2CC[C@@H]1C` [Example 12] it is 1 to 1000 µM.
With `COC(=O)N1c2ccc3c(nc(CCc4cccnc4)n3C)c2CC[C@@H]1C` [Example 13] the figure was 1 to 1000 µM; with `COC(=O)N1c2ccc3c(nc(CCc4ccncc4)n3C)c2CC[C@@H]1C` [Example 14], 1 to 1000 µM; with `COC(=O)N1c2ccc3c(nc(CCn4ccccc4=O)n3C)c2CC[C@@H]1C` [Example 15], 1 to 1000 µM.
`COC(=O)N1c2ccc3c(nc(Cc4ccccc4)n3[C@H]3C[C@@H](C(=O)O)C3)c2CC[C@@H]1C` [Example 20]: the concentration for half-maximal inhibition (IC50) fell in the range of 1 to 1000 µM.
With `COC(=O)N1c2ccc3c(nc(Cc4ccccc4)n3[C@H]3C[C@H](C(=O)O)C3)c2CC[C@@H]1C` [Example 21] the figure was 1 to 1000 µM; with `COC(=O)N1c2ccc3c(nc(Cc4ccccc4)n3C34CCC(C(=O)O)(CC3)C4)c2CC[C@@H]1C` [Example 24], 1 to 1000 µM; with `COC(=O)N1c2ccc3c(nc(Cc4ccccc4)n3[C@H]3CC[C@](C)(C(=O)O)CC3)c2CC[C@@H]1C` [Example 25], 1 to 1000 µM.
The figure for `COC(=O)N1c2ccc3c(nc(Cc4ccccc4)n3[C@H]3CC[C@@](C)(C(=O)O)CC3)c2CC[C@@H]1C` [Example 26] is 1 to 1000 µM; for `COC(=O)N1c2ccc3c(nc(Cc4ccc(OC)cc4)n3[C@H]3CC[C@H](C(=O)O)CC3)c2CC[C@@H]1C` [Example 27] it is 1 to 1000 µM.
The figure for `COC(=O)N1c2ccc3c(nc(Cc4ccc(OC)c(F)c4)n3[C@H]3CC[C@H](C(=O)O)CC3)c2CC[C@@H]1C` [Example 28] is 1 to 1000 µM; for `COC(=O)N1c2ccc3c(nc(CCn4cccn4)n3[C@H]3CC[C@H](C(=O)O)CC3)c2CC[C@@H]1C` [Example 31] it is 1 to 1000 µM.
Consider `COC(=O)N1c2ccc3c(nc(CCn4nccn4)n3[C@H]3CC[C@H](C(=O)O)CC3)c2CC[C@@H]1C` [Example 32], for which the half-maximal inhibitory concentration (IC50) fell in the range of 1 to 1000 µM.
Regarding `COC(=O)N1c2ccc3c(nc(CCc4cnc(C)o4)n3[C@H]3CC[C@H](C(=O)O)CC3)c2CC[C@@H]1C` [Example 33], the half-maximal inhibitory concentration (IC50) fell in the range of 1 to 1000 µM.
The figure for `COC(=O)N1c2ccc3c(nc(CCc4cnn(C)c4)n3[C@H]3CC[C@H](C(=O)O)CC3)c2CC[C@@H]1C` [Example 34] is 1 to 1000 µM.
With `COC(=O)N1c2ccc3c(nc(CCc4ncc(C)o4)n3[C@H]3CC[C@H](C(=O)O)CC3)c2CC[C@@H]1C` [Example 35] the figure was 1 to 1000 µM.
The figure for `COC(=O)N1c2ccc3c(nc(CCc4nc(C)co4)n3[C@H]3CC[C@H](C(=O)O)CC3)c2CC[C@@H]1C` [Example 36] is 1 to 1000 µM; for `COC(=O)N1c2ccc3c(nc(CCc4cc(C)no4)n3[C@H]3CC[C@H](C(=O)O)CC3)c2CC[C@@H]1C` [Example 37] it is 1 to 1000 µM.
